Data from patent publication US20230330004A1, “COMPOSITION COMPRISING GINSENG EXTRACT FOR REFORMING SKIN MICROBIOTA” (KOREA GINSENG CORP., priority 2020, published 2023).

How the values were obtained:
[1] = test system: Staphylococcus epidermidis; assay: Growth of beneficial skin microbes, absorbance at 600 nm (Experimental Example 2); format: cell-based; conditions: for Effect of selectively promoting the growth of beneficial microbes rather than harmful microbes (in words): S. epidermidis versus S. aureus, from Table 2; for Effect of promoting the growth of beneficial microbes (in words): S. epidermidis, compared to the composition of the present invention; for OD600 (Beneficial microbes): Staphylococcus epidermidis, incubated 24 hours in shaking incubator, absorbance at 600 nm; for Increase in beneficial microbes versus harmful microbes: ratio of OD600 S. epidermidis / S. aureus, 24 hours
Experimental: (§1) To compare the compositions of Example and Comparative Examples in terms of the increase in growth of beneficial skin microbes versus harmful skin microbes, the growth of each microbe was measured by the same method as described in Experimental Example 1. Specifically, using Staphylococcus epidermidis as beneficial skin microbes, and Staphylococcus aureus (Strain number 39149, Korean Collection for Type Cultures) as harmful skin microbes, samples were inoculated respectively and incubated for 24 hours in a shaking incubator. Solutions with the strains grown therein were each collected and centrifuged, and after removing the supernatant therefrom, an equivalent amount of a saline solution was added to prepare a bacterial solution.

[2] = test system: Staphylococcus aureus (Strain number 39149, Korean Collection for Type Cultures); assay: Growth of harmful skin microbes, absorbance at 600 nm (Experimental Example 2); format: cell-based; conditions: incubated 24 hours in shaking incubator
Experimental: as §1

| Compound | Effect of selectively promoting the growth of beneficial microbes rather than harmful microbes (in words) [1] | Effect of promoting the growth of beneficial microbes (in words) [1] | OD600 (Beneficial microbes) [1] | Increase in beneficial microbes versus harmful microbes [1] | OD600 (Harmful microbes) [2] |
| --- | --- | --- | --- | --- | --- |
| 3-Sialyllactose [Comparative Example 2] | low | negligible | 0.049 | ×0.636 | 0.077 |
| CC(=O)N[C@H]1[C@H]([C@H](O)[C@H](O)CO)O[C@@](OC[C@H]2O[C@@H](O[C@H]3[C@H](O)[C@@H](O)C(O)O[C@@H]3CO)[C@H](O)[C@@H](O)[C@H]2O)(C(=O)O)C[C@@H]1O (stereo partly shown) [Comparative Example 3, 6-Sialyllactose] | low | negligible | 0.047 | ×0.723 | 0.065 |
